Measured values as given in PubChem BioAssay (NCI).
Where “and” joins values, the source holds several entries; their conditions need not be identical. Equal entries are not always repeated.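 Following 48 hours of exposure in 96-well plates, responses at five concentrations were used to interpolate endpoints linearly. GI50 marks 50% less growth. TGI: concentration producing complete growth inhibition.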

What was measured:
Assay in all cases: NCI-60 cell line screen, 48 h
SNB-75 CNS = tested on: SNB-75 CNS
SF-268 CNS = tested on: SF-268 CNS
OVCAR-8 ovarian = tested on: OVCAR-8 ovarian
NCI-H226 lung = tested on: NCI-H226 lung
PC-3 prostate = tested on: PC-3 prostate
CCRF-CEM leukemia = tested on: CCRF-CEM leukemia
OVCAR-3 ovarian = tested on: OVCAR-3 ovarian
A549 NSCLC = tested on: A549 NSCLC
786-0 renal = tested on: 786-0 renal
DU-145 prostate = tested on: DU-145 prostate

SMILES | GI50 (SNB-75 CNS) | TGI (SNB-75 CNS) | GI50 (SF-268 CNS) | TGI (SF-268 CNS) | GI50 (OVCAR-8 ovarian) | TGI (OVCAR-8 ovarian) | GI50 (NCI-H226 lung) | TGI (NCI-H226 lung) | GI50 (PC-3 prostate) | TGI (PC-3 prostate) | GI50 (CCRF-CEM leukemia) | TGI (CCRF-CEM leukemia) | GI50 (OVCAR-3 ovarian) | TGI (OVCAR-3 ovarian) | GI50 (A549 NSCLC) | TGI (A549 NSCLC) | GI50 (786-0 renal) | TGI (786-0 renal) | GI50 (DU-145 prostate) | TGI (DU-145 prostate)
N/C(=N\OC(=O)c1ccccc1)C(C(=O)NOC(=O)c1ccccc1)C1CCCCC1 (centres undefined) | 2.79 µM | 11.9 µM | 2.39 µM | 6.7 µM | 3.38 µM | 14.8 µM | 15.8 µM | 34.1 µM | 6.33 µM | 20.5 µM | 2.71 µM | 9.79 µM | 4.56 µM | 15.9 µM | 2.08 µM | 5.05 µM | 13.9 µM | 26.9 µM | 2.76 µM | 10.3 µM
CC1=C(C(=O)NC2CCCCC2)CC(C(=O)NC2CCCCC2)=C(C)N1 |  | 64.9 µM |  | > 100 µM |  |  |  |  |  | > 100 µM |  | > 100 µM |  | > 100 µM |  | > 100 µM |  | > 100 µM |  | > 100 µM
COC(=O)c1ccc2c(c1)C(NC(C)=O)CCc1cc(OC)c(OC)c(OC)c1-2 (centres undefined) |  | 15.1 µM |  | 77.9 µM |  | 9.1 µM |  | 1.17 µM |  | > 36.9 µM |  | > 35.6 µM |  | 1.23 µM |  | > 100 µM |  | 93.3 µM |  | 0.0865 µM
CC1(C)N=C(N)N=C(N)N1c1ccc(CCc2ccccc2)c(Cl)c1 | 0.517 µM | 12.7 µM | 0.0552 µM | 14.3 µM | 0.0897 µM | 13.6 µM | 0.521 µM | 17.1 µM | 0.0916 µM | 12.1 µM | 0.0597 µM | 15.3 µM | 0.281 µM | 12.4 µM | 0.0452 µM | 14 µM | 0.179 µM | 14.6 µM | 0.0911 µM | 15.8 µM
C[C@]12CC[C@@H]3c4ccc(O)c([N+](=O)[O-])c4CC[C@H]3[C@@H]1CC[C@@H]2NS(=O)(=O)c1ccc(C(F)(F)F)cc1 | 1.43 µM | 5.73 µM | 2.28 µM | 7.55 µM | 2.46 µM | 8.3 µM | 1.62 µM | 3.78 µM | 1.65 µM | 4 µM | 2.34 µM | 7.95 µM |  |  | 1.98 µM | 6.07 µM | 2.05 µM | 4.35 µM | 2.63 µM | 7.11 µM
CC(O)CNC1=CC(=O)C(=O)c2ccccc21 (centres undefined) |  | 29.8 µM |  | 33.9 µM |  |  |  |  |  | > 100 µM |  | > 100 µM |  | 13.4 µM |  | 39.5 µM |  | 32.2 µM |  | 29.1 µM
Cc1cccc(NC(=O)c2sc3nc4c(cc3c2N)CCCC4)c1C | 0.173 µM |  | 1.03 µM | > 100 µM | 0.754 µM | > 100 µM | 1.44 µM | > 25.1 µM | 0.468 µM | > 100 µM | 0.375 µM | > 100 µM | 0.285 µM | 0.871 µM | 0.612 µM | > 100 µM | 0.532 µM | > 100 µM | 0.454 µM | > 100 µM
C=C1C(=O)O[C@@H]2C[C@@]3(C)CC(=O)C=C(C)[C@@H]3C[C@H]12 |  | 39.6 µM |  | 42.5 µM |  | 42.9 µM |  | > 100 µM |  | 36.3 µM |  | > 100 µM |  | 19.9 µM |  | > 100 µM |  | 31.5 µM |  | 16.1 µM
COc1cc(Nc2ccnc(N3CCN(c4ccnc5cc(Cl)ccc45)CC3)n2)cc(OC)c1 | 1.95 µM | 6.81 µM | 3.05 µM | > 100 µM | 1.97 µM | > 23 µM | 2.34 µM | > 55.7 µM | 1.4 µM | > 100 µM | 1.38 µM | > 100 µM | 2.53 µM | > 28.9 µM | 1.81 µM | > 26.7 µM | 1.6 µM | 4.6 µM | 3.25 µM | > 100 µM
CCc1nc(N)nc(N)c1-c1ccc([N+](=O)[O-])c(NCc2ccccc2)c1 |  | 35.4 µM |  | 40.3 µM |  | 42.2 µM |  | 46.8 µM |  | 39.9 µM |  | 32.5 µM |  | 36.6 µM |  | 24.8 µM |  | 29.8 µM |  | 31.5 µM
CNC(=O)Nc1ccc(-c2nc(N3CCOCC3)nc3c2cnn3C2CCOCC2)cc1 | 0.045 µM | 0.448 µM | 0.284 µM | > 51.3 µM | 0.247 µM | 6.47 µM | 0.125 µM | 4.26 µM | 0.0809 µM | 7.49 µM | 0.276 µM | > 100 µM | 0.21 µM |  | 0.204 µM | 2.71 µM | 0.295 µM | 2.86 µM | 0.288 µM | > 100 µM
Clc1ccc(COC(Cn2ccnc2)c2ccc(Cl)cc2Cl)cc1 (centres undefined) | 4.97 µM | 17.5 µM and 26.8 µM and 30.1 µM | 3.42 µM | 18.3 µM and 36.1 µM and 36.7 µM | 1.7 µM | 10.1 µM and 28.7 µM and 32.8 µM |  | 22.1 µM and 50 µM and 11.7 µM | 1.8 µM | 8.78 µM and 23.4 µM and 21.9 µM | 3.22 µM | 14.1 µM and 23.7 µM and 21.1 µM | 2.5 µM | 6.49 µM and 23.2 µM and 25.1 µM | 2.78 µM | 12.1 µM and 27 µM and 23.9 µM | 1.88 µM | 4.01 µM and 25.8 µM and 26.3 µM | 5.41 µM | 17.8 µM and 30.1 µM and 28.2 µM
N#CC(C#N)SCc1ccccc1 |  | > 96 µM |  | > 100 µM |  | 49.9 µM |  | 76.6 µM |  | > 100 µM |  | > 87 µM |  | > 100 µM |  | > 100 µM |  | > 100 µM |  | 55.3 µM
CC(CO)[C@H]1OC(=O)C=C2[C@@]13O[C@@H]3[C@H]1OC(=O)[C@@]3(C)[C@H]4O[C@H]4C[C@@]2(C)[C@@H]13 (some centres undefined) |  | 6.05 µM |  | > 25.8 µM |  | 9.02 µM |  | 5.47 µM |  | 23.1 µM |  |  |  | > 30.1 µM |  | > 39.8 µM |  | > 28.1 µM |  | > 27.1 µM
COc1cc(-c2oc3ccccc3c(=O)c2O)cc(OC)c1OC |  | 25.6 µM |  | > 100 µM |  | > 100 µM |  |  |  | > 100 µM |  | > 30.5 µM |  | > 100 µM |  | > 100 µM |  | 41.6 µM |  | > 100 µM
Cc1ccc(C(=O)/C(=C/c2ccc([N+](=O)[O-])cc2)S(=O)Cc2ccccc2)cc1 (centres undefined) | 1.27 µM | 2.73 µM | 1.71 µM | 3.72 µM | 1.36 µM | 3.23 µM | 1.71 µM | 4.72 µM | 1.35 µM | 2.95 µM | 0.396 µM | > 100 µM | 1.28 µM | 2.57 µM | 2.26 µM | 5.66 µM | 1.44 µM | 2.81 µM | 1.34 µM | 2.69 µM
